Patent US9102656B2, “Use of rosuvastatin lactols as medicaments” (RedX Pharma Limited, priority 2009, dated 2015)
Counter-ions that a name gives are not always drawn.

Assays:
plasma triglycerides = experiment: Rat plasma triglyceride levels after 3 or 5 days BID oral treatment; assay type: in vivo; conditions: male SD rats, 25 mg/kg po BID for 3 or 5 days, plasma 16 hours after last dose
Method: The measurement of the change in rat plasma triglyceride levels is considered to be a fair test for determining HMG CoA reductase activity.
112 male SD rats (Harlan) were housed in groups of 6 under a 12 h light dark cycle (lights on 07.00 h) with free access to food (normal laboratory chow) and water. Animals between 148-183 g were allocated to treatment groups of 8 balanced by body weight and treatments were balanced across cages.
Four rosuvastatin analogues were made up in 10% PEG300/10% cremophor/80% methyl cellulose (0.5%) (vehicle 1) to make a 5 mg/mL solution. The rosuvastatin compounds used were:
Rosuvastatin Lactol n-propyl acetal (diastereomeric ratio 2/1) (BPL001); Rosuvastatin lactol n-propyl acetal nicotinoyl ester (diastereomeric ratio 2/1) (BPL002); Rosuvastatin lactol iso-propyl acetal benzyl ether (BPL003); and Rosuvastatin lactol methyl acetal nicotinoyl ester (diastereomeric ratio 2/1) (BPL004).
Rosuvastatin was formulated in 0.5% Tween in 0.5% methyl cellulose (vehicle 2) at 5 mg/kg as a suspension.
Rats were orally dosed with vehicle 1, one of the four rosuvastatin analogues in vehicle 1 (25 mg/kg), vehicle 2 or rosuvastatin in vehicle 2 (25 mg/kg po), BID for 3 or 5 days. […]
Data for each time-point were analysed by 1-way ANOVA and post-hoc Dunnett's test.

HMG-CoA reductase = HMG-CoA reductase (Homo sapiens (Human), UniProt P04035); experiment: HMG-CoA Reductase assay kit (spectrophotometric NADPH absorbance at 340 nm); assay type: biochemical; conditions: inhibitor concentrations varied from 0 nM to 50 nM; 37° C.
Chain of HMG-CoA reductase (P04035 340-888): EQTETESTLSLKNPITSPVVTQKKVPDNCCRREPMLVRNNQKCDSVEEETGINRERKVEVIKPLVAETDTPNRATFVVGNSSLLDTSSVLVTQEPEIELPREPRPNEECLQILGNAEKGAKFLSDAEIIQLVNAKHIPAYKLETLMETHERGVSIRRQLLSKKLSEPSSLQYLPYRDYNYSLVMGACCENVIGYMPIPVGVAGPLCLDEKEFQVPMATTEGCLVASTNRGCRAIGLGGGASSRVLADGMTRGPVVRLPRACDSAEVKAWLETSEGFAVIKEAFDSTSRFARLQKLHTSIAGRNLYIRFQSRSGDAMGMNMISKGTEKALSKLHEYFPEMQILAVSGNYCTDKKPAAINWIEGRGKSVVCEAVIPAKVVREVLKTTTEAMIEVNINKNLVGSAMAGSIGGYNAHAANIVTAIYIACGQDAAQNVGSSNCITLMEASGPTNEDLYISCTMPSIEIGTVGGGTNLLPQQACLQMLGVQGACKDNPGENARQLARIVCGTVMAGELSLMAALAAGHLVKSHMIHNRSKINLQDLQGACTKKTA
Method: All assays were carried out in a reaction buffer containing […] KxPO4 at pH 7.2, 1 mM EDTA, 500 mM KCl and 1 mg/ml BSA. The concentrations of NADPH and HMG-CoA were both 200 μM. […] Absorbance readings were then taken every 20 seconds for 600 seconds. […] After these were identified, assays were carried out varying their concentrations from 0 nM to 50 nM allowing IC50 values to be calculated.
Add a buffer to all samples. • b. […] Add the reconstituted NADPH to all samples. • d. Add Substrate Solution (HMG-CoA) to all samples. • e. […] Mix the samples thoroughly. 3. The kinetics programme was started immediately.

Row | Compound | effect on plasma triglycerides (plasma triglycerides) | IC50 (HMG-CoA reductase) [nM]
1 | CC(C)c1nc(N(C)S(C)(=O)=O)nc(-c2ccc(F)cc2)c1C=CC(O)CC(O)CC(=O)O (stereo not drawn) [rosuvastatin, 7-[4-(4-fluorophenyl)-6-(1-methylethyl)-2-(methyl-methylsulfonyl-amino)-pyrimidin-5-yl]-3,5-dihydroxy-hept-6-enoic acid] | marked reduction in plasma triglycerides | 
2 | COC1C[C@H](OC(=O)c2cccnc2)C[C@@H](/C=C/c2c(-c3ccc(F)cc3)nc(N(C)S(C)(=O)=O)nc2C(C)C)O1 (stereo partly drawn) |  | < 1
3 | CC(C)c1nc(N(C)S(C)(=O)=O)nc(-c2ccc(F)cc2)c1/C=C/[C@@H](O)C[C@@H](O)CC(=O)O [Rosuvastatin calcium salt] |  | 4
